Results as given in patent publication US20230064363A1, “MATURATION OF SPERMATOGONIAL CELLS IN VITRO BT GROWTH FACTORS AND HORMONES” (B.G. Negev Technologies & Applications Ltd., at Ben-Gurion …, priority 2020, published 2023).
Where two headings read alike, the source gives them in different places.

What was measured:
Sertoli cells = details: cells isolated from seminiferous tubules ten days post-treatment, compared to control
Method: Tubular Cell Isolation—The procedure was performed under sterile conditions. Testes from both control and CP-treated mice were removed and tunica albuginea was gently removed by scalpel knife. Seminiferous tubules (STs) were immersed with PBS and thereafter transported through a syringe 2-3 times to complete the mechanical digestion. Thereafter the STs were enzymatically digested as described by AbuMadigem et al. [International Journal of Molecular Sciences 19, 3804 (2018)].
Gene expression—RNA was extracted from isolated testicular cells, from control or CP-treated immature mice, by GenElute Mannalian Total RNA Miniprep Kit [Sigma, St. Louis, USA). cDNA synthesis was performed according to the qScript cDNA Synthesis Kit (Quantabio, Beverly, Mass., USA) and qPCR was performed using specific primers for each examined marker: ABP (forward: [sequence] (SEQ ID NO: 1); reverse: [sequence] (SEQ ID NO:2); product size, 237 bp), INHIBIN B (forward: [sequence] (SEQ ID NO:3); reverse: [sequence] (SEQ ID NO:4); product size, 209 bp), FSH-R (forward: [sequence] […] (SEQ ID NO: 6); product size, 206 bp), Transferrin (forward: [sequence] (SEQ ID NO:7); reverse: [sequence] (SEQ ID NO:8); product size: 231 bp), Housekeeping gene GAPDH (forward: [sequence] (SEQ ID NO:9); reverse: [sequence] (SEQ ID NO:10); product size, 450 bp). qPCR reaction was performed following the 2× qPCRBIO SyGreen Blue Mix Hi-ROX (PCR Biosystems Ltd, Aztec House, 397-405 Archway Road, London, UK) protocol and was performed using the LightCycler 96 real-time PCR machine (Roche, Roche Diagnostics Corporation, Roche CustomBiotech, Indianapolis, Ind., USA). Program: preincubation 10 minutes at 95° C., 40 cycles of 15 seconds at 95° C., 15 seconds at 60° C. and 10 seconds at 72° C. Melting cycle: 10 seconds at 95° C., 60 seconds at 65° C., and 1 second at 97° C. PCR products were identified by the melting curve. The “threshold cycle” (Ct) value for each transcript was identified. The relative quantity of gene expression was analyzed by the 2° method. Results were expressed as the fold of increase related to the GAPDH of the same examined sample and relatively compared to control treatment group.

[1] = system: spermatogonial cells isolated from CP-treated immature mice; experiment: In vitro culture in MCS of seminiferous tubule cells from CP-treated immature mice; marker-positive cells by immunofluorescence staining; assay type: cell-based; details: for ACROSIN (meiotic/postmeiotic marker), percentage of stained cells / BOULE (meiotic marker), percentage of stained cells / C-KIT (pre-meiotic marker), percentage of stained cells / CD9 (pre-meiotic marker), percentage of stained cells / CREM (meiotic marker), percentage of stained cells / GFR-a (pre-meiotic marker), percentage of stained cells / VASA (pre-meiotic marker), percentage of stained cells / a-6-INTG (pre-meiotic marker), percentage of stained cells: after 4-5 weeks culture in MCS, FSH 7.5 IU/ml, IL-1α 20 pg/ml or TNF-α 20 pg/ml from the beginning, testosterone 10^−7 M at the last week
[2] = system: isolated seminiferous tubule cells; experiment: Isolated seminiferous tubule cells of 7-days-old mice cultured in methylcellulose culture system (MCS); marker-positive cells by immunofluorescence staining; assay type: cell-based
[3] = system: isolated seminiferous tubule cells; experiment: Isolated seminiferous tubule cells of 7-days-old mice cultured in MCS; premeiotic and meiotic/postmeiotic marker RNA by qPCR; assay type: cell-based; details: GM-CSF 0.1 or 1 ng/ml for 4 weeks; testosterone 10^−7 M added after 2 weeks in control medium for additional 2 weeks; after 4 weeks of culture; compared to control cultured cells
[4] = 10-days post last CP-injection, compared to control, p<0.001
[5] = 10-days post the last CP-injection, compared to control, p<0.001
[6] = CP 100 mg/kg i.p. once a week for 3 weeks, day 10 post-treatment, compared to control, p<0.001
[7] = compared to cells cultured in control medium
[8] = GM-CSF 0.1 or 1 ng/ml for 4 weeks, testosterone 10^−7 M added after 2 weeks in control medium for additional 2 weeks, after 4 weeks of culture, compared to control cultured cells
[9] = factor from the beginning of the culture (IL-1α 10 pg/ml; IL-1β or IL-6 1, 10 or 100 pg/ml), after 4 weeks of culture, compared to control medium
[10] = IL-1α 10 pg/ml added only after 2 weeks of the culture for additional 2 weeks, compared to control medium

O=P1(N(CCCl)CCCl)NCCCO1 (centres unmarked) [CP, cyclophosphamide]
number of Sertoli cells (vimentin) (testes of immature mice; [4]): significantly reduced | number of peritubular cells (αSMA) (testes of immature mice; [4]): significantly reduced | number of cells stained positive to the meiotic/postmeiotic marker acrosin (testes of immature mice; [5]): significantly reduced | number of meiotic cells stained positive to BOULE (testes of immature mice; [5]): significantly reduced | number of meiotic cells stained positive to CREM (testes of immature mice; [5]): significantly reduced | number of premeiotic cells stained positive to CD9 (testes of immature mice; [5]): significantly reduced | number of premeiotic cells stained positive to VASA (testes of immature mice; [5]): significantly reduced | number of premeiotic cells stained positive to c-KIT (testes of immature mice; [5]): significantly reduced | number of premeiotic cells stained positive to α-6 INTEGRIN (testes of immature mice; [5]): significantly reduced | testicular weight (testes of immature mice; CP 100 mg/kg i.p. once a week for 3 weeks, all time points during 5 weeks after the last injection, compared to control mice, p<0.001): significantly decreased | seminiferous tubules histology (testes of immature mice; CP 100 mg/kg i.p. once a week for 3 weeks, day 10 post-treatment, compared to control): significantly impaired | testicular cell count (testes of immature mice; [6]): decreased | testicular weight (testes of immature mice; [6]): decreased | seminiferous tubules histology (testes of immature mice; CP 100 mg/kg i.p. once a week for 3 weeks, during 3 weeks after the last injection): impaired | time of most severe damage for the seminiferous tubules (testes of immature mice; CP 100 mg/kg i.p. once a week for 3 weeks, weeks post-treatment): 1-2 weeks | expression levels of androgen binding protein (ABP) (Sertoli cells): did not significantly affect | expression levels of transferrin (Sertoli cells; p<0.01): significantly increased | expression levels of FSH-receptor (FSH-R) (Sertoli cells; p<0.05): significantly increased | expression levels of inhibin (Sertoli cells; p<0.05): significantly increased

C[C@]12CC[C@H]3[C@@H](CCC4=CC(=O)CC[C@@]43C)[C@@H]1CC[C@@H]2O [testosterone, reference compound]
ACROSIN (meiotic/postmeiotic marker), percentage of stained cells [1]: 55.53% | BOULE (meiotic marker), percentage of stained cells [1]: 22.15% | C-KIT (pre-meiotic marker), percentage of stained cells [1]: 11.13% | CD9 (pre-meiotic marker), percentage of stained cells [1]: 42.63% | CREM (meiotic marker), percentage of stained cells [1]: 38.42% | GFR-a (pre-meiotic marker), percentage of stained cells [1]: 24.03% | VASA (pre-meiotic marker), percentage of stained cells [1]: 23.76% | a-6-INTG (pre-meiotic marker), percentage of stained cells [1]: 12.23% | percentage of the meiotic/postmeiotic ACROSIN positive cells [1, 7]: significantly increased | percentage of the other examined premeiotic and meiotic (or meiotic/postmeiotic) cells developed in MCS [1, 7]: without any significant effect | percentage of the premeiotic CD9 positive cells [1, 7]: significantly increased

GM-CSF
percentage of VASA positive cells [2, 8]: significantly increased | percentage of acrosin positive cells [2, 8]: did not significantly increase | percentages of BOULE positive cells [2, 8]: significantly increased | BOULE expression levels (qPCR) [3]: significantly increased | PLZF expression level (qPCR) [3]: significantly increased | VASA expression level (qPCR) [3]: significantly increased | acrosin expression levels (qPCR) [3]: did not significantly increase

IL-1β: interleukin 1 beta cytokine (PeproTech), 1, 10 or 100 pg/ml
percentages of BOULE positive cells [2, 9]: significantly increased | percentages of VASA positive cells [2, 9]: significantly increased | percentages of acrosin positive cells [2, 9]: significantly increased

IL-6: interleukin-6 cytokine (PeproTech), 1, 10 or 100 pg/ml
percentages of BOULE positive cells [2, 9]: significantly increased | percentages of VASA positive cells [2, 9]: significantly increased | percentages of acrosin positive cells [2, 9]: significantly increased

TNFα
ACROSIN (meiotic/postmeiotic marker), percentage of stained cells [1]: 36.4% | BOULE (meiotic marker), percentage of stained cells [1]: 21.1% | C-KIT (pre-meiotic marker), percentage of stained cells [1]: 29.05% | CD9 (pre-meiotic marker), percentage of stained cells [1]: 33.52% | CREM (meiotic marker), percentage of stained cells [1]: 36.1% | GFR-a (pre-meiotic marker), percentage of stained cells [1]: 25.3% | VASA (pre-meiotic marker), percentage of stained cells [1]: 31.67% | a-6-INTG (pre-meiotic marker), percentage of stained cells [1]: 25.76% | percentage of the other examined premeiotic and meiotic (or meiotic/postmeiotic) cells developed in MCS [1, 7]: without any significant effect | percentage of the premeiotic CD9 positive cells [1, 7]: significantly increased

B1: IL-1α: interleukin 1 alpha cytokine (BioLegend 20 pg/ml; PeproTech 10 pg/ml) (protein, UniProt P01583 113-271, looked up)
Interleukin-1 alpha: SAPFSFLSNVKYNFMRIIKYEFILNDALNQSIIRANDQYLTAAALHNLDEAVKFDMGAYKSSKDDAKITVILRISKTQLYVTAQDEDQPVLLKEMPEIPKTITGSETNLLFFWETHGTKNYFTSVAHPNLFIATKQDYWVCLAGGPPSITDFQILENQA
percentages of BOULE positive cells [2, 10]: increased the percentages of BOULE positive cells, but not significantly | percentages of VASA positive cells [2, 10]: increased the percentages of VASA positive cells, but not significantly | percentages of acrosin cells [2, 10]: increased the percentages of acrosin cells, but not significantly | percentages of BOULE positive cells [2, 9]: significantly increased | percentages of VASA positive cells [2, 9]: significantly increased | percentages of acrosin positive cells [2, 9]: significantly increased | ACROSIN (meiotic/postmeiotic marker), percentage of stained cells [1]: 34.27% | BOULE (meiotic marker), percentage of stained cells [1]: 27.16% | C-KIT (pre-meiotic marker), percentage of stained cells [1]: 16.5% | CD9 (pre-meiotic marker), percentage of stained cells [1]: 23.4% | CREM (meiotic marker), percentage of stained cells [1]: 30.45 + % | GFR-a (pre-meiotic marker), percentage of stained cells [1]: 22.77% | VASA (pre-meiotic marker), percentage of stained cells [1]: 20.8% | a-6-INTG (pre-meiotic marker), percentage of stained cells [1]: 17.5% | percentage of premeiotic, meiotic and meiotic/postmeiotic examined cells developed in MCS [1, 7]: did not show any significant effect
